Test results taken from BindingDB's records for patent US9868748 (Vitae Pharmaceuticals, 2018).
pKi: −log10 of the molar value.

Target: T1, Nuclear receptor ROR-gamma (Homo sapiens, UniProt P51449)
T1 sequence (P51449 whole entry): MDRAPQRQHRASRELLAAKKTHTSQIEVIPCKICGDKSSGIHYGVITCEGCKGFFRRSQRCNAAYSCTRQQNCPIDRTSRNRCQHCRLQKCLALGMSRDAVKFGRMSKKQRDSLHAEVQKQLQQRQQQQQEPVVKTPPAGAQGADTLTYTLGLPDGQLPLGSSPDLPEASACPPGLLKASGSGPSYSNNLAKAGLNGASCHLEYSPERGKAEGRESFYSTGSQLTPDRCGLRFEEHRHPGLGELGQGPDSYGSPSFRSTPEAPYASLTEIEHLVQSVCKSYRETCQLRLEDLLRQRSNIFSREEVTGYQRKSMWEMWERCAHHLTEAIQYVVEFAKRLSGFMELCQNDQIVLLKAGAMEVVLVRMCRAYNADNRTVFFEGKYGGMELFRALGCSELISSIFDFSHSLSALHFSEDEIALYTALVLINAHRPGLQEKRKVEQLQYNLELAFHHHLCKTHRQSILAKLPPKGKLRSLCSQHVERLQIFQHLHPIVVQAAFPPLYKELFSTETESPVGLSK
Assay: Binding Assay
Protocol: Compounds of the present invention were tested for ability to bind to RORγ in a cell-free competition assay with commercially available radio-ligand (RL), 25-hydroxy [26,27-3H] cholesterol (PerkinElmer, Cat. # NET674250UC), for a ligand binding site on a recombinant RORγ Ligand Binding Domain (LBD) protein expressed as a 6×His-Glutathione-S-Transferase (GST) fusion ( 6×His disclosed as SEQ ID NO: 2). The assay was performed in 96-well SPA plates (PerkinElmer, Cat. #1450-401) in 50 mM HEPES buffer, pH 7.4, containing 150 mM NaCl, 5 mM MgCl2, 10% (v/v) glycerol, 2 mM CHAPS, 0.5 mM β-octylglucopyranoside and 5 mM DTT. Tested compounds were dissolved in DMSO, and semi-log (3.162×) serial dilutions of the compounds were prepared in the same solvent. Two μL of the DMSO solutions were mixed with 28 μL of 8.6 nM 25-hydroxy [26,27-3H] cholesterol and 50 μL of 24 nM RORγ LBD. […] SPA signal for tritium beta radiation was registered on PerkinElmer Microbeta plate reader. Percent inhibition values were calculated based on the high signal obtained with DMSO control and the low signal observed with 10 μM standard RORγ inverse agonist T0901317 (SigmaAldrich, Cat. # T2320). The percent inhibition vs. concentration data were fit into a four-parameter model, and […] values were calculated from the fit as the concentrations corresponding to the inflection points on the dose-response curves.

CCS(=O)(=O)c1ccc(CC(=O)Nc2nc3c(s2)CN(CC2CC[C@@H](C(F)(F)F)N(C)C2)[C@H]3C(C)C)cc1 (stereo partly specified) [US9868748, I-A30]
pKi: > 7.00
